Test results: the supplement of paper PMC5908809

Key:
Assay in all cases: relative IC50 (inflection point of fitted viability curve, relative to fitted max inhibition); higher = less sensitive
Details in all cases: 72 h
DERL-7 (IL-2 2.5 ng/mL) = test system: DERL-7 (IL-2 2.5 ng/mL)
Description: (§1)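 Drug sensitivity and resistance testing: 5 concentrations over a 10,000-fold range, 72 h at 37 °C, viability by CellTiter-Glo normalised to DMSO and benzethonium chloride controls. IC50 is the inflection point of a logistic fit (min fixed at 0, max fitted), so it is relative to the fitted maximal inhibition. Kept only where fitted max inhibition is at least 50%.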

IMC-1 (IL-2 20 ng/mL) = test system: IMC-1 (IL-2 20 ng/mL)
Description: as §1

KAI3 (IL-2 2.5 ng/mL) = test system: KAI3 (IL-2 2.5 ng/mL)
Description: as §1

KHYG-1 (IL-2 2.5 ng/mL) = test system: KHYG-1 (IL-2 2.5 ng/mL)
Description: as §1

NK-92 (IL-2 2.5 ng/mL) = test system: NK-92 (IL-2 2.5 ng/mL)
Description: as §1

NK-YS (IL-2 2.5 ng/mL) = test system: NK-YS (IL-2 2.5 ng/mL)
Description: as §1

NKL (IL-2 2.5 ng/mL) = test system: NKL (IL-2 2.5 ng/mL)
Description: as §1

SNK-6 (IL-2 2.5 ng/mL) = test system: SNK-6 (IL-2 2.5 ng/mL)
Description: as §1

YT (IL-2 2.5 ng/mL) = test system: YT (IL-2 2.5 ng/mL)
Description: as §1

[1] = test system: normal primary NK cells, pool 1 (3 donors) (IL-2 2.5 ng/mL)
Description: as §1

[2] = test system: normal primary NK cells, pool 1 (3 donors), resting (IL-2 0 ng/mL)
Description: as §1

[3] = test system: normal primary NK cells, pool 2 (3 donors) (IL-2 2.5 ng/mL)
Description: as §1

[4] = test system: normal primary NK cells, pool 3 (3 donors) (IL-2 2.5 ng/mL)
Description: as §1

Row | SMILES | relative IC50 (DERL-7 (IL-2 2.5 ng/mL)) | relative IC50 (IMC-1 (IL-2 20 ng/mL)) | relative IC50 (KAI3 (IL-2 2.5 ng/mL)) | relative IC50 (KHYG-1 (IL-2 2.5 ng/mL)) | relative IC50 (NK-92 (IL-2 2.5 ng/mL)) | relative IC50 (NK-YS (IL-2 2.5 ng/mL)) | relative IC50 (NKL (IL-2 2.5 ng/mL)) | relative IC50 (SNK-6 (IL-2 2.5 ng/mL)) | relative IC50 (YT (IL-2 2.5 ng/mL)) | relative IC50 [1] | relative IC50 [2] | relative IC50 [3] | relative IC50 [4]
1 | COC(=O)C[C@](O)(CCCC(C)(C)O)C(=O)O[C@@H]1C(OC)=C[C@]23CCCN2CCc2cc4c(cc2[C@H]13)OCO4 [Omacetaxine] | 7.54 nM | 33.6 nM | 6.32 nM | 35.2 nM | 25.7 nM | 30.7 nM | 29.8 nM | 6.73 nM | 17.5 nM | 6.62 nM | 1.15 nM | 5.02 nM | 10.6 nM
2 | CN1CCN(c2cc(C(=O)Nc3ccc4c(c3)-c3c(c(C(N)=O)nn3-c3ccc(F)cc3)CC4)c(Cl)cn2)CC1 [PHA 408] | 1350 nM | 2970 nM | 940 nM | 2990 nM | 2090 nM | 2440 nM | 1620 nM | 1620 nM | 1920 nM | 2590 nM | 2140 nM | 2100 nM | 2780 nM
3 | Cc1[nH]c2ccccc2c1CCNCc1ccc(/C=C/C(=O)NO)cc1 [Panobinostat] | 12.5 nM | 29.9 nM | 5.94 nM | 16.3 nM | 13.4 nM | 17.4 nM | 8.13 nM | 14.3 nM | 21.2 nM | 12.9 nM | 5.89 nM | 7.38 nM | 13.5 nM
4 | C[C@@H]1C[C@H]2O[C@@H]2/C=C\C=C\C(=O)Cc2c(Cl)c(O)cc(O)c2C(=O)O1 [Radicicol] | 37.3 nM | 310 nM | 72.1 nM | 209 nM | 130 nM | 198 nM | 134 nM | 81.8 nM | 423 nM | 126 nM | 520 nM | 75.2 nM | 132 nM
5 | O=C(/C=C\n1cnc(-c2cc(C(F)(F)F)cc(C(F)(F)F)c2)n1)NNc1cnccn1 [Selinexor] | 65.1 nM | 497 nM | 93.3 nM | 152 nM | 168 nM | 166 nM | 106 nM | 48.3 nM | 64.1 nM | 76.7 nM | 24.2 nM | 52.4 nM | 80.8 nM
6 | COc1cc([C@@H]2c3cc4c(cc3[C@@H](O[C@@H]3O[C@@H]5CO[C@@H](c6cccs6)O[C@H]5[C@H](O)[C@H]3O)[C@H]3COC(=O)[C@H]23)OCO4)cc(OC)c1O [Teniposide] | 15.5 nM | 20.3 nM | 18.8 nM | 27.8 nM | 84.1 nM | 13.3 nM | 10 nM | 32 nM | 122 nM | 534 nM | 139 nM | 965 nM | 1250 nM
7 | COc1cc2c(NC3CCN(C(C)C)CC3)nc(C3CCCCC3)nc2cc1OCCCN1CCCC1 [UNC0638] | 2120 nM | 2780 nM | 528 nM | 2540 nM | 1660 nM | 2570 nM | 2290 nM | 1600 nM | 3050 nM | 3450 nM | 2290 nM | 3070 nM | 3360 nM
